In patent US10023864B2, “Methods of treating a metabolic syndrome by modulating heat shock protein (HSP) 90-beta” (Berg LLC, priority 2014, dated 2018):
Entries after “also recorded” stand apart in the source; their conditions may differ. d = 2'-deoxy (DNA); m = 2'-O-methyl

Columns and labels:
HSMM myotubes [1] = experiment: Insulin signaling experiments in HSMM myotubes (western blot of phosphorylated Akt, ERK, GSK3β); type: cell-based, human
Protocol: Human HSMM myotubes cells that were plated in 12 well plates the previous week were used. The media was aspirated and fresh media with appropriate dilutions of the NC and H3 siRNA for Hsp90 knockdown were added such that the final concentration in the wells of the plate was 100 nM. Minis TKO transfection reagent was used for transfecting the cells. The plate was then incubated at 37° C. overnight.
The media was aspirated and the cells were washed off twice—first with warm PBS and second with 0.1% BSA containing growth media. The cells were then serum starved for 2-3 hours in 0.1% differentiation media containing the appropriate inhibitors at 37° C. followed by insulin stimulation for 5 minutes (0, 10, and 100 nM insulin).
The wells were then washed once with PBS and harvested into 100 μl of RIPA buffer containing protease and phosphatase inhibitors. The plate was placed on ice and, using a cell scraper, the cells were scraped from the plate. The lysates were collected in 1.5 ml Eppendorf tubes and homogenized by using a syringe and needle. The lysates were then centrifuged at 4° C. for 10 mins at 14,000 RPM. The lysates can be stored at −20° C. for future use.
Protein content was estimated by BCA assay and samples were prepared for gel electrophoresis and western blotting as described in subsequent sections. The total volume required to load 10 μg of total protein was calculated.
The samples were loaded onto a bis-tris or a tris-glycine-SDS gel. Proteins were transferred to a PVDF or a nitrocellulose membrane using routine wet or dry transfer methods. The membranes were then blocked for at least an hour using the blocking buffer. The membranes were then cut prior to exposure to the appropriate primary antibodies diluted in blocking buffer for incubation. Primary antibodies to pAKT (p-Akt, S473), pERK(p-Erk, Phospho-p44/42 MAPK (Erk1/2) (Thr202/Tyr204), and pGSK3β (Phospho-GSK-3β (Ser9) were obtained from Cell Signaling Inc.® Other antibodies were also obtained from commercial sources. The membrane was placed in the shaker and incubated in the refrigerator (4° C.) overnight.
Visualization of proteins and quantification of western blots was performed as follows. The membranes were washed thrice using 1×PBS-T (10 minutes each). […]
Each strip of membrane was taken out arranged in a clean flat surface. […] The bands were quantified using the BIORAD® software.
HSMM myotubes were sequentially (1) transfected with 3 different siRNAs targeting HSP90AB1 for 48 hours, (2) serum starved for 3 hours, and (3) subjected to stimulation of different concentrations of insulin (0, 10, 100 nM). Signaling events downstream of insulin stimulation were assessed by western blotting for levels of total and phosphorylated Akt, Erk, and GSK3β. […]

HSMM myotubes [2] = experiment: Seahorse bioenergetic profiling of myotubes (OCR); type: cell-based, human
HSP90α and HSP90β = conditions: HSP90α vs HSP90β; cited from earlier work
human Hsp90AB1 protein = experiment: Knockdown of Hsp90AB1 protein in HSMM by Western blotting; type: cell-based; conditions: Western blot, normalized to actin, vs NC1
Protocol: ASO1-ASO6 were tested for their ability to knock down human Hsp90AB1 levels in HSMM myotubes. The effectiveness of oligonucleotides ASO1 (A1), ASO2 (A2) ASO3 (A3) ASO4 (A4) ASO5 (A5) and ASO6 (A6) in knocking down the expression of HSP90AB1 protein is shown by Western blotting in FIGS. 19A and 19B. The oligonucleotide NC1 was used as a negative control. HSP90Ab1 protein levels were normalized to the levels of actin.
(§1) The ASO oligonucleotides ASO5, ASO13 and ASO18 were tested for their ability to reduce expression of human Hsp90AB1 protein in human skeletal muscle myotubes (HSMM) and C2C12 mouse myoblasts by Western blotting. ASO5 was derived from the mouse HSP90ab1 gene, while ASO13 and ASO18 were directed to the human HSP90ab1 gene. The oligonucleotide NC1 was used as a negative control. HSP90AB1protein levels were normalized to the levels of actin.

DIO mice [3] = experiment: Heat production in DIO mice; type: in vivo, mouse; conditions: eight weeks treatment
Protocol: The CLAMS (Columbus Instruments, Columbus, Ohio, USA) metabolic monitoring cages are used to simultaneously monitor horizontal and vertical activity, feeding and drinking, oxygen consumption, and CO2 production. ASO injected and control mice are individually placed in CLAMS cages and monitored over a 4-day period after acclimation to the cages for 1-2 days. The various parameters are recorded in both fasted and fed conditions. Food and water consumption are measured directly as accumulated data. Hourly files display all measurements for each parameter: volume of oxygen consumed, ml/kg per h (VO2), volume of carbon dioxide produced, ml/kg per h (VCO2), respiratory exchange ratio, heat (kcal/h), accumulated food (g), accumulated drink (g), XY total activity (all horizontal beam breaks in counts), XY ambulatory activity (minimum three different, consecutive horizontal beam breaks in counts), and Z activity (all vertical beam breaks in counts). The data are recorded during the 30-s sampling period. The CLAMS data are analyzed by normalizing with lean body mass.

[4] = system: Hsp90AB1 protein in C2C12 mouse myoblasts; experiment: Hsp90AB1 protein expression in C2C12 mouse myoblasts by Western blotting; type: cell-based; conditions: Western blot, normalized to actin, vs NC1
Protocol: as §1

DIO mice [5] = experiment: Insulin level in DIO mice; type: in vivo, mouse
Protocol: The mice were divided into four groups: (1) lean (non-diabetic control); (2) diabetic receiving control ASO (NC-ASO); (3) diabetic receiving ASO5; and (4) diabetic receiving ASO6. In various experiments mice were dosed intra-peritoneally with twice per week injection of ASO at […] body weight for 4 or 8 weeks. Skeletal muscles were subjected to quantitative PCR.
Further, the effect of the reduction of Hsp90ab1 protein level on plasma insulin levels was examined.

For `CCc1cc(-c2n[nH]c(C)c2-c2ccc3c(c2)OCCO3)c(O)cc1O` [CCT018159], which “effect on insulin signaling and bioenergetics compared with HSP90β knockdown alone” value (HSMM myotubes [1]) is on record?
Its value is “less profound effect”.

What about the “level of pERK” value (HSMM myotubes [1]; CCT018159 and insulin) of the same compound?
Its value is “No significant changes; also recorded: no change”.

And the “level of pGSK3β” value (HSMM myotubes [1]; CCT018159 and insulin)?
Its value is “No significant changes; also recorded: no change”.

What about the “insulin stimulated phosphorylation of Akt (phospho-AKT)” value (HSMM myotubes [1]; CCT018159 then insulin, effect at the higher concentration, 10 uM) of the same compound?
Its value is “increase; also recorded: significantly enhanced”.

And the “CCCP induced uncoupling response on mitochondrial metabolism” value (HSMM myotubes [2]; CCT018159 at 1 μM, 3 μM, and 10 μM (FIG. 10 legend))?
The value was “did not have a significant effect”.

What about the “uncoupled OCR” value (HSMM myotubes [2]; myotubes, CCT018159 1 μM) of the same compound?
The value was “increased”.

And the “uncoupled (CCCP induced) OCR” value (HSMM myotubes [2]; myotubes, CCT018159, 10 uM induced greater suppression)?
The value was “decreased in a concentration dependent manner”.

And the “basal OCR” value (HSMM myotubes [2]; myotubes, CCT018159 at different concentrations)?
Its value is “no observed change”.

For `O=C(O)/C=C/c1nn(Cc2ccc(Cl)cc2Cl)c2cc(C(F)(F)F)ccc12` [gamendazole], which HSP90 isoform preference (HSP90α and HSP90β) is on record?
Its HSP90 isoform preference is “specific for HSP90β”.

Which HSP90 isoform preference (HSP90α and HSP90β) does the source give for `C[C@@H]1C[C@H]2O[C@@H]2/C=C\C=C\C(=O)Cc2c(Cl)c(O)cc(O)c2C(=O)O1` [radicicol] here?
The HSP90 isoform preference was “HSP90β is more sensitive”.

With NVP-HS990 as the compound, how does the HSP90 isoform preference (HSP90α and HSP90β) read?
Its HSP90 isoform preference is “inhibit both the HSP90α and HSP90β isoforms”.

For “mA*mC*mU*mU*mC*mC*T*T*G*A*C*C*C*T*C*C*T*C*mU*mC*mC*mU*mC*mC (antisense ACUUCCTTGACCCTCCTCUCCUCC; sugars from the 5' end m6 d12 m6, all phosphorothioate, methylation of C not given here) [ASO3, modified antisense oligonucleotide derived from the mouse HSP90AB1 gene]”, which “level of HSP90ab1 protein” value (human Hsp90AB1 protein) is on record?
The value was “effective”.

For “mA*mU*mC*mU*mC*mC*T*T*C*T*C*C*C*G*T*T*C*C*mU*mU*mC*mU*mC*mC (antisense AUCUCCTTCTCCCGTTCCUUCUCC; sugars from the 5' end m6 d12 m6, all phosphorothioate, methylation of C not given here) [ASO2, modified antisense oligonucleotide derived from the mouse HSP90AB1 gene]”, which “level of HSP90ab1 protein” value (human Hsp90AB1 protein) is on record?
Its value is “effective”.

And the heat production (DIO mice [3])?
The heat production was “improves”.

What does the source list for “mA*mU*mG*mC*mC*mC*T*G*A*A*T*T*C*C*A*A*C*T*mG*mA*mC*mC*mU*mU (antisense AUGCCCTGAATTCCAACTGACCUU; sugars from the 5' end m6 d12 m6, all phosphorothioate, methylation of C not given here) [ASO18, modified ASO designed on homology among mouse, monkey and human HSP90ab1 genes]”?
level of HSP90ab1 protein (human Hsp90AB1 protein): significantly decreased; also recorded: significantly reduced; Hsp90AB1 protein expression [4]: significantly decreased; also recorded: significantly reduced

Which Hsp90AB1 protein expression [4] does the source give for “mC*mC*mA*mC*mU*mU*C*C*T*T*G*A*C*C*C*T*C*C*mU*mC*mU*mC*mC*mU (antisense CCACUUCCTTGACCCTCCUCUCCU; sugars from the 5' end m6 d12 m6, all phosphorothioate, methylation of C not given here) [ASO5, modified antisense oligonucleotide derived from the mouse HSP90AB1 gene]” here?
Its Hsp90AB1 protein expression is “did not significantly reduce”.

What about the fed insulin levels (DIO mice [5]) of the same compound?
Its fed insulin levels is “significant reduction”.

Which results are given for “mC*mU*mC*mU*mU*mC*C*T*C*T*G*C*C*T*C*A*T*C*mA*mU*mC*mA*mC*mU (antisense CUCUUCCTCTGCCTCATCAUCACU; sugars from the 5' end m6 d12 m6, all phosphorothioate, methylation of C not given here) [ASO13, modified ASO designed on homology among mouse, monkey and human HSP90ab1 genes]”?
level of HSP90ab1 protein (human Hsp90AB1 protein): significantly decreased; also recorded: significantly reduced; Hsp90AB1 protein expression [4]: significantly decreased; also recorded: significantly reduced

For “mC*mU*mU*mC*mC*mU*T*G*A*C*C*C*T*C*C*T*C*T*mC*mC*mU*mC*mC*mA (antisense CUUCCUTGACCCTCCTCTCCUCCA; sugars from the 5' end m6 d12 m6, all phosphorothioate, methylation of C not given here) [ASO4, modified antisense oligonucleotide derived from the mouse HSP90AB1 gene]”, which “level of HSP90ab1 protein” value (human Hsp90AB1 protein) is on record?
Its value is “effective”.

What does the source list for “mU*mC*mU*mC*mC*mU*T*C*T*C*C*C*G*T*T*C*C*T*mU*mC*mU*mC*mC*mA (antisense UCUCCUTCTCCCGTTCCTUCUCCA; sugars from the 5' end m6 d12 m6, all phosphorothioate, methylation of C not given here) [ASO1, modified antisense oligonucleotide derived from the mouse HSP90AB1 gene]”?
level of HSP90ab1 protein (human Hsp90AB1 protein): effective; heat production (DIO mice [3]): improves
